Data on 34 compounds can be found in ChEMBL document CHEMBL3991601, “The target landscape of clinical kinase drugs” (Science, 2017).

Calls of active or inactive are those of the source. Rule as the data show it: actives have a measured Kd and inactives only a lower limit.

The term Kd denotes the free concentration of one partner at which half of the binding sites on the other are occupied at equilibrium, for simple one-to-one binding.

The target in one assay is T1, Activin receptor type-1B (Homo sapiens, UniProt P36896).
T1 sequence (P36896 whole entry): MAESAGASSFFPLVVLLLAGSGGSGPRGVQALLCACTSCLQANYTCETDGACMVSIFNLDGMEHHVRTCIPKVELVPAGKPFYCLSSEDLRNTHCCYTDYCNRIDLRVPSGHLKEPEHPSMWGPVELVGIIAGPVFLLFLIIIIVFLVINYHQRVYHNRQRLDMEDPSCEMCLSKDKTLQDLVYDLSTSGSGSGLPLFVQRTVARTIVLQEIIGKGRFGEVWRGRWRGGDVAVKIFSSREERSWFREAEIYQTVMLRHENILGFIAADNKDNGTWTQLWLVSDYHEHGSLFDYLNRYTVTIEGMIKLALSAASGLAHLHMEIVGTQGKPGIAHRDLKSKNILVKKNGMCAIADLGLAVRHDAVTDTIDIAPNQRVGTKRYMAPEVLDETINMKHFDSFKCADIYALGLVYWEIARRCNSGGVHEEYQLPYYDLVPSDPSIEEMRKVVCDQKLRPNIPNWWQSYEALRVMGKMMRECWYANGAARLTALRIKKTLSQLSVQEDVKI

In assay [1] the target is T2, Ferrochelatase, mitochondrial (Homo sapiens, UniProt P22830).
T2 sequence (P22830 whole entry): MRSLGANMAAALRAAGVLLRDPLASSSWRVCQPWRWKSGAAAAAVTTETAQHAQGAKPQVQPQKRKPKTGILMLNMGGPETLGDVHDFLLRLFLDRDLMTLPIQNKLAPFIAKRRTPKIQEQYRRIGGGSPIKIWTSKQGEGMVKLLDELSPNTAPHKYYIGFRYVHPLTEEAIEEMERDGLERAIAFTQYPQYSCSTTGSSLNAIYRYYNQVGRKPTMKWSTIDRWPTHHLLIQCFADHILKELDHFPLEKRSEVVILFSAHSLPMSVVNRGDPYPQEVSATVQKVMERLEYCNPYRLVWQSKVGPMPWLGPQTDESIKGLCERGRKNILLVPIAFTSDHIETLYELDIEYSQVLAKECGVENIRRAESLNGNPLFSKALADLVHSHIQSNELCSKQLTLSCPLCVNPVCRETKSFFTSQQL

The target in assay [2] is T3, Serine/threonine-protein kinase TAO1 (Homo sapiens, UniProt Q7L7X3).
T3 sequence (Q7L7X3 whole entry): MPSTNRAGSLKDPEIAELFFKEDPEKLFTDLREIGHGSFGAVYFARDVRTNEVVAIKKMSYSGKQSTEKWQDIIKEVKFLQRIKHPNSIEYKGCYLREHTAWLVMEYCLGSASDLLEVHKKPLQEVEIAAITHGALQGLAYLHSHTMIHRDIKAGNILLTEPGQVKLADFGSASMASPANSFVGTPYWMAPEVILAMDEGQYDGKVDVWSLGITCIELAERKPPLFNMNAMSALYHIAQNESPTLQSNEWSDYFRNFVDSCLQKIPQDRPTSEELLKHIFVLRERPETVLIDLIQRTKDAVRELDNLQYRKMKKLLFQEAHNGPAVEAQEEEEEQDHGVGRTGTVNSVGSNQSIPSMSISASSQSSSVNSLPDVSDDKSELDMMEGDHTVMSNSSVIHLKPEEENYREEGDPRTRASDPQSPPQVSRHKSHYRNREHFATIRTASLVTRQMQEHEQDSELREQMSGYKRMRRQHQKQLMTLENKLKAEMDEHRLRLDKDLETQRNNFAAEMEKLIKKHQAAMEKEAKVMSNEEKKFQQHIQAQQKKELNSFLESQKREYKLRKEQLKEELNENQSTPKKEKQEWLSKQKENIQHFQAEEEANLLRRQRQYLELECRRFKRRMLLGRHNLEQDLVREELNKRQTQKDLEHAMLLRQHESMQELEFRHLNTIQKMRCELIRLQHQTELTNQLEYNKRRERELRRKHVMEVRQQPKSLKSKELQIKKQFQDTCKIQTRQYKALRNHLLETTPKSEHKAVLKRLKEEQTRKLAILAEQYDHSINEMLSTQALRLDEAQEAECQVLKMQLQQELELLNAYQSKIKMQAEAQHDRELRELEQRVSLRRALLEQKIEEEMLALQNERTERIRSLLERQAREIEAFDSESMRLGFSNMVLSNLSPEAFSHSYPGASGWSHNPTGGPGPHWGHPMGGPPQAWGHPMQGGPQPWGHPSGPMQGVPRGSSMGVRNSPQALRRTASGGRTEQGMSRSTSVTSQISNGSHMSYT
Also: in the data inactive means no Kd found up to 30 µM.

`C[C@@H](Oc1cc(C(=O)Nc2ccc(C(=O)N3CCN(C)CC3)cc2)nnc1N)c1c(Cl)ccc(F)c1Cl`: the Kd (at Activin receptor type-1B; in assay [1]; in assay [2]) was > 30 µM (inactive) in each case.

On to `C[C@H]1CNCCCN1S(=O)(=O)c1cccc2cncc(F)c12`, for which the Kd (on Activin receptor type-1B; in assay [1]; in assay [2]) was > 30 µM (inactive) throughout.

Take `CC(=O)c1cnc2ccc(-c3cc(Cl)c(O)c(Cl)c3)nc2c1N[C@H]1CC[C@H](CN(C)C)CC1`: the values for the Kd in assay [1] and in assay [2] were 1.09 µM (active) and 0.017 µM (active), respectively.

With `CCNC(=O)C#Cc1ccc2c(c1)NC(=O)/C2=C(\Nc1ccc(CN(C)C)cc1)c1ccccc1`, the Kd at Activin receptor type-1B was > 30 µM (inactive); in assay [1], 3.48 µM (active); in assay [2] it was > 30 µM (inactive).

With `C=CC(=O)N1CCC[C@H](n2c(=O)n(-c3ccc(Oc4ccccc4)cc3)c3c(N)ncnc32)C1`, the Kd (on Activin receptor type-1B; in assay [1]; in assay [2]) was > 30 µM (inactive) in each case.

For the compound `Cc1nc2cc(-c3nn(C(C)C)c4ncnc(N)c34)ccc2o1`, the Kd at Activin receptor type-1B is 0.767 µM (active); in assay [1] it was > 30 µM (inactive); in assay [2], 1.09 µM (active).

For `COCc1c(-c2ccc(NC(=O)Nc3cc(C(F)(F)F)ccc3F)c(F)c2)c2c(N)ncnn2c1CN1CCOCC1`, the Kd (at Activin receptor type-1B; in assay [1]; in assay [2]) was > 30 µM (inactive) throughout.

In the case of `Nc1ncnc2c1c(-c1cccc(OCc3ccccc3)c1)cn2[C@H]1C[C@@H](CN2CCC2)C1` [AEW-541], the figures for the Kd (on Activin receptor type-1B; in assay [1]; in assay [2]) were > 30 µM (inactive), 6.5 µM (active) and > 30 µM (inactive), respectively.

As to `COc1cc(Nc2ncc3c(n2)-c2ccc(Cl)cc2C(c2c(F)cccc2OC)=NC3)ccc1C(=O)O` [ALISERTIB], the Kd (on Activin receptor type-1B; in assay [1]) was > 30 µM (inactive) in each case.

With `Cc1nc(NC(=O)N2CCC[C@H]2C(N)=O)sc1-c1ccnc(C(C)(C)C(F)(F)F)c1` [ALPELISIB], the Kd (at Activin receptor type-1B; in assay [1]; in assay [2]) was > 30 µM (inactive) throughout.

Turning to `Cc1csc(-c2nnc(Nc3ccc(Oc4ncccc4-c4ccnc(N)n4)cc3)c3ccccc23)c1` [AMG-900], the figures for the Kd (at Activin receptor type-1B; in assay [1]; in assay [2]) were > 30 µM (inactive), > 30 µM (inactive) and 1.9 µM (active), respectively.

Regarding `O=C(Nc1c[nH]nc1-c1nc2cc(CN3CCOCC3)ccc2[nH]1)NC1CC1` [AT-9283], the equilibrium dissociation constant (Kd) is 0.811 µM (active) on Activin receptor type-1B, > 30 µM (inactive) in assay [1] and 2.22 µM (active) in assay [2].

`C=CC(=O)Nc1cc2c(Nc3ccc(F)c(Cl)c3)ncnc2cc1C#CC(C)(C)N1CCN(C)CC1` [AV-412 FREE BASE]: the Kd (at Activin receptor type-1B; in assay [1]; in assay [2]) was > 30 µM (inactive) throughout.

With `CNC(=O)c1ccccc1Sc1ccc2c(/C=C/c3ccccn3)n[nH]c2c1` [AXITINIB], in assay [1], the Kd was 6.84 µM (active).

For `COc1cc([C@@H]2c3cc4c(cc3[C@H](O)[C@H]3COC(=O)[C@@H]23)OCO4)cc(OC)c1OC` [AXL-1717], the Kd (at Activin receptor type-1B; in assay [1]; in assay [2]) was > 30 µM (inactive) each time.

As to `NC(=O)Nc1cc(-c2cccc(F)c2)sc1C(=O)N[C@H]1CCCNC1` [AZD-7762], the Kd (at Activin receptor type-1B; in assay [1]; in assay [2]) was > 30 µM (inactive) throughout.

Consider `Cc1cc(C(=O)NOCCO)c(Nc2ccc(I)cc2F)n(C)c1=O` [AZD-8330], for which the Kd (on Activin receptor type-1B; in assay [1]; in assay [2]) was > 30 µM (inactive) in each case.

For the compound `Cn1cnc2c(F)c(Nc3ccc(Br)cc3F)c(C(=O)NOCCO)cc21` [BINIMETINIB], the Kd (at Activin receptor type-1B; in assay [1]; in assay [2]) was > 30 µM (inactive) in each case.

`CCn1c(C(=O)N(C2CC2)C2CC2)cc2c3c(ncn3C)c(Nc3cc(C)n(C)n3)nc21` [BMS-911543]: the Kd (on Activin receptor type-1B; in assay [1]; in assay [2]) was > 30 µM (inactive) in each case.

In the case of `COc1cc2ncnc(Oc3cccc(NC(=O)Nc4cc(C(C)(C)C(F)(F)F)on4)c3)c2cc1OC` [CEP-32496], the Kd (at Activin receptor type-1B; in assay [1]; in assay [2]) was > 30 µM (inactive) in each case.

As to `Cc1cc(Nc2ncc(Cl)c(Nc3ccccc3S(=O)(=O)C(C)C)n2)c(OC(C)C)cc1C1CCNCC1` [CERITINIB], the Kd (on Activin receptor type-1B; in assay [1]; in assay [2]) was > 30 µM (inactive) throughout.

As for `COc1c(OCCCN2CCOCC2)ccc2c1N=C(NC(=O)c1cnc(N)nc1)N1CCN=C21` [COPANLISIB], the Kd (on Activin receptor type-1B; in assay [1]; in assay [2]) was > 30 µM (inactive) each time.

For the compound `COCC(=O)NC/C=C/c1ccc2ncnc(Nc3ccc(Oc4ccc(C)nc4)c(C)c3)c2c1` [CP-724714], the Kd on Activin receptor type-1B was > 30 µM (inactive); in assay [1], 28.6 µM (active); in assay [2] it was > 30 µM (inactive).

As to `C#Cc1cccc(Nc2ncnc3cc(OC)c(OCCCCCCC(=O)NO)cc23)c1` [CUDC-101], the Kd was > 30 µM (inactive) at Activin receptor type-1B, 2.87 µM (active) in assay [1] and > 30 µM (inactive) in assay [2].

`CC(C)(C)c1nc(-c2cccc(NS(=O)(=O)c3c(F)cccc3F)c2F)c(-c2ccnc(N)n2)s1` [DABRAFENIB]: the Kd on Activin receptor type-1B is 0.601 µM (active); in assay [1], > 30 µM (inactive).

In the case of `Cn1cc(C2=C(c3cn(C4CCN(Cc5ccccn5)CC4)c4ccccc34)C(=O)NC2=O)c2ccccc21` [ENZASTAURIN], the Kd in assay [1] was > 30 µM (inactive).

As to `C[C@@H](Oc1cc(-n2cnc3ccc(CN4CCN(C)CC4)cc32)sc1C(N)=O)c1ccccc1C(F)(F)F` [GSK-461364], the Kd in assay [1] is > 30 µM (inactive).

For the compound `CCn1cc(-c2ccnc3[nH]c(-c4cccc(CN(C)C)c4)cc23)c(-c2ccc(NC(=O)N(C)C)cc2)n1` [GSK-1070916], the Kd on Activin receptor type-1B is 1.21 µM (active); in assay [1] it was 2.41 µM (active).

In the case of `CNC(=O)c1nn(C)c2c1C(C)(C)Cc1cnc(Nc3ccc(N4CCN(C)CC4)cc3)nc1-2` [MILCICLIB], the Kd (on Activin receptor type-1B; in assay [1]) was > 30 µM (inactive) in each case.

For `Cc1[nH]c(/C=C2\C(=O)Nc3ccccc32)c(C)c1CCC(=O)O` [ORANTINIB], the Kd (on Activin receptor type-1B; in assay [1]) was > 30 µM (inactive) throughout.

In the case of `NC(=O)c1c(OCc2c(F)cc(Br)cc2F)nsc1NC(=O)NCCCCN1CCCC1` [OSI-632], the Kd on Activin receptor type-1B was 0.004 µM (active); in assay [1], > 30 µM (inactive).

As for `CC(=O)NCC(=O)N1[C@@H]2CC[C@H]1c1ccc(Nc3ncc(C(F)(F)F)c(NC4CCC4)n3)cc12` [PF-03814735], the Kd (at Activin receptor type-1B; in assay [1]) was > 30 µM (inactive) each time.

`O=C(NOCCO)c1cc(CN2OCCCC2=O)c(F)c(F)c1Nc1ccc(I)cc1F` [RO-4987655]: the Kd in assay [1] was > 30 µM (inactive).

Take `N#CC[C@H](C1CCCC1)n1cc(-c2ncnc3[nH]ccc23)cn1` [RUXOLITINIB]: in assay [1], the Kd was > 30 µM (inactive).
